US20250122173A1, “MODULATORS OF RHO-ASSOCIATED PROTEIN KINASE” (Redx Pharma Limited, priority 2022, published 2025)

Assays:
ROCK1 = ROCK1 (Homo sapiens, UniProt Q13464); assay: ROCK1 inhibition assay (ROCK1 binding activity, as determined by the assay described for ROCK2); assay type: biochemical; conditions: read-out: ROCK 1 (IC50 category)
Experimental: Assay for ROCK2 inhibition was performed using the protein construct N-terminal 6His-tagged ROCK2 catalytic domain 11-552 (Dundee University, UK). Protein was purified from a baculovirus expression system. Long S6 peptide ([…]) was used as substrate. Kinase reactions were carried out in 15 μl volume in a 96-well plate (black, half area) using 1.25 nM constitutively active ROCK2 kinase, 100 μM long S6 peptide, 20 μM ATP and test compound in DMSO (or DMSO only for controls). The final concentration of DMSO was 1%. Assay buffer was 50 mM HEPES pH 7.5 supplemented with 0.2 mM EDTA, 10 mM magnesium acetate, 0.01% Tween-20, 1 mM DTT and 0.01% BSA. Test compounds were pre-incubated with ROCK2 kinase for 1 hour before addition of ATP and long S6 peptide. After incubation for a further 1 hour, the amount of ADP produced was measured using ADP-Glo Kinase Assay (Promega) as per manufacturer's instructions. The luminescence was measured on a PHERAstar FS (BMG Labtech). The concentration of test compound required to inhibit ADP production by 50% (the IC50) was calculated using a four-parameter logistic function with software by Dotmatics. […] The category “+” refers to compounds with a ROCK2 or ROCK1 IC50 value of >10 μM. The category “++” refers to compounds with a ROCK2 or ROCK1 IC50 value of 10 to 3 μM. The category “+++” refers to compounds with a ROCK1 or ROCK2 IC50 value of 3 to 0.3 μM. The category “++++” refers to compounds with a ROCK1 or ROCK2 IC50 value of <0.3 μM.

ROCK2 = molecular target: T1, ROCK2 (Homo sapiens, UniProt O75116); assay: ROCK2 inhibition assay (ADP-Glo kinase assay, called ROCK2 binding activity); assay type: biochemical; conditions: 20 μM ATP, 1 hour pre-incubation, read-out: ROCK 2 (IC50 category)
T1 construct: N-terminal 6His-tagged ROCK2 catalytic domain 11-552; 6His (N); purchased Dundee University, UK; host or cells: baculovirus expression system
Experimental: ROCK2 Binding Activity: Assay for ROCK2 inhibition was performed using the protein construct N-terminal 6His-tagged ROCK2 catalytic domain 11-552 (Dundee University, UK). Protein was purified from a baculovirus expression system. Long S6 peptide ([…]) was used as substrate. Kinase reactions were carried out in 15 μl volume in a 96-well plate (black, half area) using 1.25 nM constitutively active ROCK2 kinase, 100 μM long S6 peptide, 20 μM ATP and test compound in DMSO (or DMSO only for controls). The final concentration of DMSO was 1%. Assay buffer was 50 mM HEPES pH 7.5 supplemented with 0.2 mM EDTA, 10 mM magnesium acetate, 0.01% Tween-20, 1 mM DTT and 0.01% BSA. Test compounds were pre-incubated with ROCK2 kinase for 1 hour before addition of ATP and long S6 peptide. After incubation for a further 1 hour, the amount of ADP produced was measured using ADP-Glo Kinase Assay (Promega) as per manufacturer's instructions. The luminescence was measured on a PHERAstar FS (BMG Labtech). The concentration of test compound required to inhibit ADP production by 50% (the IC50) was calculated using a four-parameter logistic function with software by Dotmatics. […] The category “+” refers to compounds with a ROCK2 or ROCK1 IC50 value of >10 μM. The category “++” refers to compounds with a ROCK2 or ROCK1 IC50 value of 10 to 3 μM. The category “+++” refers to compounds with a ROCK1 or ROCK2 IC50 value of 3 to 0.3 μM. The category “++++” refers to compounds with a ROCK1 or ROCK2 IC50 value of <0.3 μM.

ROCK1, sequence (Q13464 whole entry, the tested form may be a part): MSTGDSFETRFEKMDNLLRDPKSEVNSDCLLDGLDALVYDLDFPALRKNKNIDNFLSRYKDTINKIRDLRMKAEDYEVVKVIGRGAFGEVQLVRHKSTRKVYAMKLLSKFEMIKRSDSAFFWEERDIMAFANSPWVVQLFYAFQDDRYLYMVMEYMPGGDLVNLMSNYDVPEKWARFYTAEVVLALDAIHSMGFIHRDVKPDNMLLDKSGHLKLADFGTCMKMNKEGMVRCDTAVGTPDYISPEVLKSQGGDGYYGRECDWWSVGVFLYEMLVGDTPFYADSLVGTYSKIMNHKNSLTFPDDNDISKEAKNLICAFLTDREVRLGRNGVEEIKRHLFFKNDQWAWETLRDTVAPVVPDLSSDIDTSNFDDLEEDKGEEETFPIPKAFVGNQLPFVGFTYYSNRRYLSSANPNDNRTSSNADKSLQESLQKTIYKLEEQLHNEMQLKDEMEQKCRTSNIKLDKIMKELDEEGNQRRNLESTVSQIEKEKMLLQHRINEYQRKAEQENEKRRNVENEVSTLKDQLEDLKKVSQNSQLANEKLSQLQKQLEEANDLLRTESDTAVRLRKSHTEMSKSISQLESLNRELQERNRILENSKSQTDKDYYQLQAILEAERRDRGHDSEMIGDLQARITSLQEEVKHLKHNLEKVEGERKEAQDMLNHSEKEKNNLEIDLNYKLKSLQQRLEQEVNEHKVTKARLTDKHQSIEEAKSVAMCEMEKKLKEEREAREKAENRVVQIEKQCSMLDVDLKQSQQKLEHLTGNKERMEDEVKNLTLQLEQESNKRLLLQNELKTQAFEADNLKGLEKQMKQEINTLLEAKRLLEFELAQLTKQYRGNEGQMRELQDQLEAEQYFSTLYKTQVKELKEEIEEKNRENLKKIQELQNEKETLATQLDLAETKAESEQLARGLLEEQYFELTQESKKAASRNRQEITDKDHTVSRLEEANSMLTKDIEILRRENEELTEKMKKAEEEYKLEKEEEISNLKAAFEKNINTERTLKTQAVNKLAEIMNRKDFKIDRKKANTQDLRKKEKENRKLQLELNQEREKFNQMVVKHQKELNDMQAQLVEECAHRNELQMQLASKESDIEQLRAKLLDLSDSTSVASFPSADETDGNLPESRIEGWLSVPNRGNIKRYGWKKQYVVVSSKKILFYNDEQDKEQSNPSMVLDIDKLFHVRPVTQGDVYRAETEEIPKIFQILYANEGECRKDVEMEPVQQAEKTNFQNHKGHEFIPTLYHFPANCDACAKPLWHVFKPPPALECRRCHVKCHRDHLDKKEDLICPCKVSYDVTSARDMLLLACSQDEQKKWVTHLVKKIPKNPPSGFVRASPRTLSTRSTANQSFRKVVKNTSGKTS
T1 sequence (O75116 11-552): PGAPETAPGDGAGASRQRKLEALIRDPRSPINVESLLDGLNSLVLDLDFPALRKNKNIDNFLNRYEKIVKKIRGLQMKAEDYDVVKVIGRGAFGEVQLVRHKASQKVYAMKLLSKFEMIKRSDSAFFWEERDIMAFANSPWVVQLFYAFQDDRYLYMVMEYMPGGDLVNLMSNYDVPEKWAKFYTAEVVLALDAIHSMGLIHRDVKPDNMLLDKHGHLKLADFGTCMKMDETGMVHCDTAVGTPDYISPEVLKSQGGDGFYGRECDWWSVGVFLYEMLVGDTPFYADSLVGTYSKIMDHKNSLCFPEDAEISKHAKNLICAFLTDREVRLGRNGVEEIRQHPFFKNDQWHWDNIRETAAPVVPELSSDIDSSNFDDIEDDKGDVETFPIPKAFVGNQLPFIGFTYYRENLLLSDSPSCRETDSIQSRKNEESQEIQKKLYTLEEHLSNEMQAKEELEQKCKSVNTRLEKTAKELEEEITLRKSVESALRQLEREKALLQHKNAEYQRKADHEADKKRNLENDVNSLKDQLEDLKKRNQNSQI

Structure (SMILES) | IC50 (ROCK1) | IC50 (ROCK2)
CCn1nc(-c2ccc(-c3ccc(C)nc3)cc2)nc1Nc1cc2c(cc1C)C(=O)NC2C (single isomer, unassigned) [Example 78] | 3 to 10 µM | < 0.3 µM
CCn1nc(-c2ccc(-c3ccc(C)nc3)cc2)nc1Nc1cc2c(cc1C)C(=O)NC2C (single isomer, unassigned) [Example 84] | 3 to 10 µM | < 0.3 µM
Cc1cn(-c2ccc(-c3nc(Nc4ccc5c(c4)CNC5=O)n(C)n3)cc2)cn1 [Example 1] | > 10 µM | < 0.3 µM
CCc1cn(-c2ccc(-c3nc(Nc4ccc5c(c4)CNC5=O)n(C)n3)cc2)c(C)n1 [Example 2] | > 10 µM | < 0.3 µM
Cc1nc(C2CC2)cn1-c1ccc(-c2nc(Nc3ccc4c(c3)CNC4=O)n(C)n2)cc1 [Example 3] | > 10 µM | < 0.3 µM
CCn1nc(-c2ccc(-n3cc(C4CC4)nc3C)cc2)nc1Nc1ccc2c(c1)CNC2=O [Example 4] | 3 to 10 µM | < 0.3 µM
Cn1nc(-c2ccc(-c3ccnc(C(F)(F)F)c3)cc2)nc1Nc1ccc2c(c1)CNC2=O [Example 5] | 3 to 10 µM | < 0.3 µM
Cn1nc(-c2ccc(C(=O)NCC(F)(F)F)cc2)nc1Nc1ccc2c(c1)CNC2=O [Example 6] | > 10 µM | < 0.3 µM
Cn1nc(-c2ccc(C(=O)NCC(F)F)cc2)nc1Nc1ccc2c(c1)CNC2=O [Example 7] | > 10 µM | 3 to 10 µM
CCn1nc(-c2ccc(-n3cc(C4CC4)nc3C)cc2)nc1Nc1ccc2c(c1C)CNC2=O [Example 8] | > 10 µM | < 0.3 µM
Cn1nc(-c2cccc(C(=O)NCC(F)(F)F)c2)nc1Nc1ccc2c(c1)CNC2=O [Example 9] | > 10 µM | 3 to 10 µM
Cn1nc(-c2ccc(-c3ccc(C(F)(F)F)nc3)cc2)nc1Nc1ccc2c(c1)CNC2=O [Example 10] | > 10 µM | < 0.3 µM
CCn1nc(-c2ccc(-c3cnc(C4CC4)n3C)cc2)nc1Nc1ccc2c(c1C)CNC2=O [Example 11] | > 10 µM | 3 to 10 µM
Cc1cc(-c2nc(Nc3ccc4c(c3C)CNC4=O)n(C)n2)ccc1-c1cnc(C2CC2)n1C [Example 12] | > 10 µM | 3 to 10 µM
Cc1cc(-c2nc(Nc3ccc4c(c3C)CNC4=O)n(C)n2)ccc1-n1cnc(C2CC2)c1 [Example 13] | > 10 µM | < 0.3 µM
Cn1nc(-c2ccc(-n3cnc(C4CC4)c3)cc2)nc1Nc1ccc2c(c1)CNC2=O [Example 14] | > 10 µM | < 0.3 µM
CCn1nc(-c2ccc(-c3ccc(C)nc3)cc2)nc1Nc1ccc2c(c1)CNC2=O [Example 15] | 3 to 10 µM | < 0.3 µM
Cn1nc(-c2ccc(-n3cnc(C4CC4)c3)cc2)nc1Nc1ccc2c(c1)C(C)(C)NC2=O [Example 16] | > 10 µM | < 0.3 µM
Cc1nc(C2CC2)cn1-c1ccc(-c2nc(Nc3ccc4c(c3)C(C)(C)NC4=O)n(C)n2)cc1 [Example 17] | > 10 µM | 3 to 10 µM
CCn1nc(-c2ccc(-n3cc(C4CC4)nc3C)cc2)nc1Nc1ccc2c(c1)C(C)(C)NC2=O [Example 18] | > 10 µM | 3 to 10 µM
CCn1nc(-c2ccc(-n3cnc(C4CC4)c3)cc2)nc1Nc1ccc2c(c1)C(C)(C)NC2=O [Example 19] | > 10 µM | < 0.3 µM
CCn1nc(-c2ccc(-c3ccc(C4CC4)nc3)cc2)nc1Nc1ccc2c(c1)CNC2=O [Example 20] | 3 to 10 µM | < 0.3 µM
CCn1nc(-c2ccc(-n3cnc(C4CC4)c3)cc2)nc1Nc1ccc2c(c1)C(C)NC2=O (stereo not drawn) [Example 21] | 3 to 10 µM | < 0.3 µM
CCn1nc(-c2ccc(-n3cc(C4CC4)nc3C)cc2)nc1Nc1ccc2c(c1)C(C)NC2=O (stereo not drawn) [Example 22] | 3 to 10 µM | < 0.3 µM

Structure (SMILES) | IC50 (ROCK1) | IC50 (ROCK2)
CCn1nc(-c2ccc(-n3cnc(C4CC4)c3)cc2)nc1Nc1ccc2c(c1)C1(CC1)NC2=O [Example 23] | > 10 µM | < 0.3 µM
CCn1nc(-c2ccc(-n3cnc(C4CC4)c3)cc2)nc1Nc1ccc2c(c1)CNC2=O [Example 24] | 3 to 10 µM | < 0.3 µM
CCn1nc(-c2ccc(-c3cnc(C4CC4)n3C)cc2)nc1Nc1ccc2c(c1)CNC2=O [Example 25] | 3 to 10 µM | < 0.3 µM
CCn1nc(-c2ccc(-c3ccnc(C)c3)c(C)c2)nc1Nc1ccc2c(c1)CNC2=O [Example 26] | 3 to 10 µM | < 0.3 µM
CCn1nc(-c2ccc(-c3ccc(C)cn3)cc2)nc1Nc1ccc2c(c1)CNC2=O [Example 27] | 3 to 10 µM | < 0.3 µM
CCn1nc(-c2ccc(-c3ccccn3)cc2)nc1Nc1ccc2c(c1)CNC2=O [Example 28] | 3 to 10 µM | < 0.3 µM
CCn1nc(-c2ccc(-c3cccnc3)cc2)nc1Nc1ccc2c(c1)CNC2=O [Example 29] | 3 to 10 µM | < 0.3 µM
CCn1nc(-c2ccc(-c3ccncc3)cc2)nc1Nc1ccc2c(c1)CNC2=O [Example 30] | 3 to 10 µM | < 0.3 µM
CCn1nc(-c2ccc(-c3ccc(C)nc3)c(C)c2)nc1Nc1ccc2c(c1)CNC2=O [Example 31] | 3 to 10 µM | < 0.3 µM
CCn1nc(-c2ccc(-c3ccnc(C4CC4)c3)c(C)c2)nc1Nc1ccc2c(c1)CNC2=O [Example 32] | < 0.3 µM | < 0.3 µM
CCn1nc(-c2ccc(-c3ccnc(C4CC4)c3)c(F)c2)nc1Nc1ccc2c(c1)CNC2=O [Example 33] | 3 to 10 µM | < 0.3 µM
CCn1nc(-c2ccc(-c3ccnc(C)c3)c(F)c2)nc1Nc1ccc2c(c1)CNC2=O [Example 34] | 3 to 10 µM | < 0.3 µM
CCn1nc(-c2ccc(-c3ccc(C)nc3)cc2)nc1Nc1ccc2c(c1)CN(C)C2=O [Example 35] | > 10 µM | 3 to 10 µM
CCn1nc(-c2ccc(-c3ccc(C)nc3)c(OC)c2)nc1Nc1ccc2c(c1)CNC2=O [Example 36] | < 0.3 µM | < 0.3 µM
CCn1nc(-c2ccc(-c3ccc(C4CC4)nc3)c(F)c2)nc1Nc1ccc2c(c1)CNC2=O [Example 37] | > 10 µM | < 0.3 µM
CCn1nc(-c2ccc(-c3ccc(C)nc3)nc2)nc1Nc1ccc2c(c1)CNC2=O [Example 39] | > 10 µM | < 0.3 µM
CCn1nc(-c2ccc(-c3ccc(C4CC4)nc3)c(C)c2)nc1Nc1ccc2c(c1)CNC2=O [Example 40] | > 10 µM | < 0.3 µM
CCn1nc(-c2ccc(-c3ccc(C)nc3)cc2)nc1Nc1cc2c(cc1C)C(=O)NC2C (stereo not drawn) [Example 41] | 3 to 10 µM | < 0.3 µM
CCn1nc(-c2ccc(-c3cnc(C)c(C)c3)cc2)nc1Nc1ccc2c(c1)CNC2=O [Example 42] | < 0.3 µM | < 0.3 µM
CCn1nc(-c2ccc(-c3ccc(C)nc3)cc2)nc1Nc1ccc2c(c1C)C(C)NC2=O (stereo not drawn) [Example 43] | > 10 µM | 3 to 10 µM
CCn1nc(-c2ccc(-c3ccc(C)cn3)c(C)c2)nc1Nc1ccc2c(c1)CNC2=O [Example 44] | > 10 µM | < 0.3 µM
CCn1nc(-c2ccc(-n3cnc(C4CC4)c3)cc2)nc1Nc1cc2c(cc1C)C(=O)NC2C (stereo not drawn) [Example 45] | 3 to 10 µM | < 0.3 µM
CCn1nc(-c2ccc(-c3ccc(C)nc3)cc2)nc1Nc1cnc2c(c1)CNC2=O [Example 46] | > 10 µM | 0.3 to 3 µM
CCn1nc(-c2ccc(-c3ccc(C4CC4)nc3)cc2)nc1Nc1ccc2c(c1)C(C)NC2=O (stereo not drawn) [Example 47] | 3 to 10 µM | < 0.3 µM
